Common to all, as to type: cell-based
Experiment [1] has as its target T1, Human GPR40 (Homo sapiens, UniProt O14842). The experiment in a line: Inositol Phosphate Turnover Assay 1 (HEK cells stably expressing human GPR40). Further details: expressed in transfected cells; host or cells: HEK cells stably expressing the aequorin reporter. The following applies: HEK cells stably expressing human GPR40, 96-well, 3H-inositol; read-out: Human GPR40 IP1 Assay 1, EC50. As to the method: (§1) Human and mouse GPR40 stable cell-lines were generated in CHO cells stably expressing NFAT BLA (Beta-lactamase). A human GPR40 stable cell-line was generated in HEK cells stably expressing the aequorin expressing reporter. The expression plasmids were transfected using lipofectamine (Life Technologies) following manufacturer's instructions. Stable cell-lines were generated following drug selection.
The assay was performed in 96-well format. HEK cells stably expressing human GPR40 were plated to be 60-80% confluent within 72 h. After 72 h, the plates were aspirated and the cells washed with inositol-free DMEM (ICN). The wash media was replaced with 150 μL of 3H-inositol labeling media (inositol-free media containing 0.4% human albumin or 0.4% mouse albumin, 1× pen/strep antibiotics, glutamine, 25 mM HEPES to which was added 3H-myo-inositol NEN #NET114A 1 mCi/mL, 25 Ci/mmol diluted 1:150 in loading media with a final specific radioactivity of 1 μCi/150 μL). Alternatively, the human and mouse albumin can be added after the overnight labeling step before the addition of LiCl.
The assay was typically run the next day after 18 h labeling. On the day of the assay, 5 μL of 300 mM LiCl was added to all wells and incubated at 37 degrees for 20 min. 0.75 μL of 200× compounds were added and incubated with the cells for 60 min at 37 degrees. The media was then aspirated off and the assay terminated with the addition of 60 μL 10 mM formic acid. The cells were lysed for 60 min at room temperature. 15-30 μL of lysate was mixed with 70 μL/1 mg YSi SPA beads (Amersham) in clear bottom Isoplates. The plates were shaken for 2 h at room temperature. Beads were allowed to settle and the plates were counted in the Wallac Microbeta.

Experiment [2] addresses T1, Human GPR40. The experiment in a line: FLIPR assay (agonist-induced calcium mobilization, GPR40/CHO NFAT BLA cells). The arrangement: expressed in transfected cells. As to the method:
as §1
FLIPR (Fluorimetric Imaging Plate Reader, Molecular Devices) assays were performed to measure agonist-induced calcium mobilization of the stable clones. For the FLIPR assay, one day before assay, GPR40/CHO NFAT BLA cells were seeded into black-wall-clear-bottom 384-well plates (Costar) at 1.4×10e4 cells/20 μL medium/well. The cells were incubated with 20 μl/well of the assay buffer (HBSS, 0.1% BSA, 20 mM HEPES, 2.5 mM probenecid, pH 7.4) containing 8 μM fluo-4, AM, 0.08% pluronic acid at room temperature for 100 minutes. Fluorescence output was measured using FLIPR. Compounds were dissolved in DMSO and diluted to desired concentrations with assay buffer. 13.3 μL/well of compound solution was added.
On the technique in general: A change in cytosolic calcium serves as a functional read-out for many receptors and channels.

Experiment [3] deals with T1, Human GPR40. The experiment in a line: Inositol Phosphate Turnover (IP1) Assay 2 (HEK cells stably expressing human GPR40, CisBio IP-One kit). The following applies: HEK cells stably expressing human GPR40, 384-well. The arrangement: expressed in transfected cells; host or cells: HEK cells stably expressing the aequorin reporter. The procedure: as §1
The assay was performed in 384-well format. HEK cells stably expressing human GPR40 were plated at 15,000 cells per well in growth medium (DMEM/10% fetal calf serum). Cell plates were then incubated 16 hours at 37 degrees in a 5% CO2 incubator.
Measurement of Inositol Phosphate Turnover (IP1) was performed using the CisBio IP-One kit (Part number 62IPAPEB). After the 16 hour incubation, the cells were washed with HEPES buffer and 10 ul of stimulation buffer (prepared as described in the kit) was added to each well. In a separate plate, compounds were diluted in DMSO (400-fold over the final concentration in the assay well) and 25 nl was acoustically transferred to the appropriate well in the assay cell plate. The plates were then incubated for 60 minutes at 37 degrees. 10 ul of detection buffer (also prepared as described in the IP-One kit) was added to each well and the plates were incubated for 60 minutes in the dark. The plates were then read in a Perkin Elmer EnVision or equivalent reader able to measure FRET. Fluorescent ratio of emission at 665 and 620 nm was then converted to IP1 concentration by back calculating from an IP1 standard curve prepared at the time of the assay.

T1 sequence (O14842 whole entry): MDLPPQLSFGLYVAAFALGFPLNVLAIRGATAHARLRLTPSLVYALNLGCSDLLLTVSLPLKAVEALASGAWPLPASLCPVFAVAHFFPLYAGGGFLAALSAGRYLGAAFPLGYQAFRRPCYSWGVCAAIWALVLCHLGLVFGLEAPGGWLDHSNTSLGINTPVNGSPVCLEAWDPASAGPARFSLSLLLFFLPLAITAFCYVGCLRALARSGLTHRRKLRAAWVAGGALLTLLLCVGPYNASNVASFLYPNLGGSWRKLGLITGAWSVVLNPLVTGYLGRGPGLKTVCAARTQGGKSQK

Usually EC50 stands for the midpoint of the concentration-response curve. With `N#Cc1ccc(-c2ccc(-c3cc(COc4cc5c(cn4)[C@H]4[C@@H](C5)[C@@H]4C(=O)O)c(F)cc3C(F)(F)F)cc2)cc1` [Compound-9, (5aR,6S,6aS)-3-((4″-cyano-4-fluoro-6-(trifluoromethyl)-[1,1′:4′,1″-terphenyl]-3-yl)methoxy)-5,5a,6,6a-tetrahydrocyclopropa[4,5] cyclopenta[1,2-c]pyridine-6-carboxylic acid], the EC50 in experiment [1] was found to be 8.9 nM.
With `O=C(O)[C@H]1[C@@H]2Cc3cc(OCc4cc(-c5ccc(-c6ccc(Cl)cc6F)cc5F)c(C(F)(F)F)cc4F)ncc3[C@@H]21` [Compound-8, (5aR,6S,6aS)-3-((4″-chloro-2′,2″,4-trifluoro-6-(trifluoromethyl)-[1,1′:4′,1″-terphenyl]-3-yl)methoxy)-5,5a,6,6a-tetrahydrocyclopropa[4,5]cyclopenta[1,2-c]pyridine-6-carboxylic acid], the EC50 in experiment [2] was 12 nM; in experiment [1], 63 nM.
In the case of `C[C@]1(O)C[C@@H](COc2c(F)cc(-c3cc(COc4cc5c(cn4)[C@H]4[C@@H](C5)[C@@H]4C(=O)O)c(F)cc3C(F)(F)F)cc2F)C1` [Compound-2, (5aR,6S,6aS)-3-{[3′,4,5′-trifluoro-4′-(((1s,3s)-3-hydroxy-3-methylcyclobutyl)methoxy)-6-(trifluoromethyl)-[1,1′-biphenyl]-3-yl]methoxy}-5,5a,6,6a-tetrahydrocyclopropa[4,5]cyclopenta[1,2-c]pyridine-6-carboxylic acid], the EC50 in experiment [2] was found to be 5.8 nM; in experiment [1], 6.9 nM.
In the case of `Cc1nc(N2Cc3cn(CC(C)(C)O)nc3C2)ccc1-c1cc(COc2cc3c(cn2)[C@H]2[C@@H](C3)[C@@H]2C(=O)O)c(F)cc1C(F)(F)F` [Compound-18, (5aR,6S,6aS)-3-((2-fluoro-5-(6-(2-(2-hydroxy-2-methylpropyl)pyrrolo[3,4-c]pyrazol-5(2H,4H,6H)-yl)-2-methylpyridin-3-yl)-4-(trifluoromethyl)benzyl)oxy)-5,5a,6,6a-tetrahydrocyclopropa[4,5]cyclopenta[1,2-c]pyridine-6-carboxylic acid], the results for the EC50 in experiment [1] and in experiment [3] were 7.6 nM and 1 nM, respectively.
Turning to `Cc1nc(OC[C@H]2C[C@@](C)(O)C2)ccc1-c1cc(COc2cc3c(cn2)[C@H]2[C@@H](C3)[C@@H]2C(=O)O)c(F)cc1C(F)(F)F` [Compound-14, (5 aR,6S,6aS)-3-((2-fluoro-5-(6-(((1s,3s)-3-hydroxy-3-methylcyclobutyl)methoxy)-2-methylpyridin-3-yl)-4-(trifluoromethyl)benzyl)oxy)-5,5a,6,6a-tetrahydrocyclopropa-[4,5]cyclopenta[1,2-c]pyridine-6-carboxylic acid], the figures for the EC50 in experiment [1] and in experiment [3] were 6.3 nM and 1.2 nM, respectively.
On to `C[C@]1(O)C[C@@H](COc2ccc(-c3cc(COc4cc5c(cn4)[C@H]4[C@@H](C5)[C@@H]4C(=O)O)c(F)cc3C(F)(F)F)cc2F)C1` [Compound-1, (5aR,6S,6aS)-3-{[3′,4-difluoro-4′-(((1s,3s)-3-hydroxy-3-methylcyclobutyl)methoxy)-6-(trifluoromethyl)-[1,1′-biphenyl]-3-yl]methoxy}-5,5a,6,6a-tetrahydrocyclopropa[4,5]cyclopenta[1,2-c]pyridine-6-carboxylic acid], for which the EC50 in experiment [2] turned out to be 7 nM; in experiment [1], 11 nM.
With `Cc1cc(-c2nnn(CC(C)(C)O)n2)cc(C)c1-c1cc(COc2cc3c(cn2)[C@H]2[C@@H](C3)[C@@H]2C(=O)O)c(F)cc1F` [Compound-16, (5aR,6S,6aS)-3-((4,6-difluoro-4′-(2-(2-hydroxy-2-methylpropyl)-2H-tetrazol-5-yl)-2′,6′-dimethyl-[1,1′-biphenyl]-3-yl)methoxy)-5,5a,6,6a-tetrahydrocyclopropa[4,5]cyclopenta[1,2-c]pyridine-6-carboxylic acid], the EC50 in experiment [1] stood at 9.4 nM; in experiment [3] it was 1 nM.
In experiment [3], `Cc1cc(OC[C@H]2C[C@](O)(CO)C2)cc(C)c1-c1cc(COc2cc3c(cn2)[C@H]2[C@@H](C3)[C@@H]2C(=O)O)c(F)cc1F` (single isomer, unassigned) [Compound-26] registered a concentration giving a half-maximal response (EC50) of 1.6 nM.
On the same count and under the same terms, the value for `Cc1cc(OC2CC(C(C)(O)CO)C2)cc(C)c1-c1cc(COc2cc3c(cn2)C2C(C3)C2C(=O)O)c(F)cc1F` (single isomer, unassigned) [Compound-21] was 1 nM; that for `O=C(O)[C@H]1[C@@H]2Cc3cc(OCc4cc(-c5ccc(OC[C@H]6C[C@](O)(CO)C6)cc5Cl)c(F)cc4F)ncc3[C@@H]21` (single isomer, unassigned) [Compound-24] was 1.3 nM.
`Cc1nc(OC2CC(S(C)(=O)=O)C2)ccc1-c1cc(COc2cc3c(cn2)[C@H]2[C@@H](C3)[C@@H]2C(=O)O)c(F)cc1C(F)(F)F` (stereo partly shown) [Compound-19]: in experiment [3], the EC50 is 2.1 nM.
As to `Cc1cc(O[C@H]2C[C@H](S(C)(=O)=O)C2)cc(C)c1-c1cc(COc2cc3c(cn2)[C@H]2[C@@H](C3)[C@@H]2C(=O)O)c(F)cc1F` [Compound-15], the EC50 in experiment [1] is 6.7 nM; in experiment [3], 1.2 nM.
For `CS(=O)(=O)c1ccc(-c2ccc(-c3cc(COc4cc5c(cn4)[C@H]4[C@@H](C5)[C@@H]4C(=O)O)c(F)cc3C(F)(F)F)cc2)cc1` [Compound-10, (5aR,6S,6aS)-3-((4-fluoro-4″-(methylsulfonyl)-6-(tri-fluoromethyl)-[1,1′;4′,1″- terphenyl]-3-yl)methoxy)-5,5a,6,6a-tetrahydrocyclo-propa[4,5]cyclpenta [1,2-c]pyridine-6-carboxylic acid], the EC50 in experiment [1] worked out at 2.9 nM.
`Cc1cc(OC[C@H]2C[C@](C)(O)[C@](C)(O)C2)cc(C)c1-c1cc(COc2cc3c(cn2)[C@H]2[C@@H](C3)[C@@H]2C(=O)O)c(F)cc1F` [Compound-20, (5aR,6S,6aS)-3-((4′-(((1s,3R,4S)-3,4-dihydroxy-3,4-dimethylcyclopentyl)methoxy)-4,6-difluoro-2′,6′-dimethyl-[1,1′-biphenyl]-3-yl)methoxy)-5,5a,6,6a-tetrahydrocyclopropa-[4,5]cyclopenta[1,2-c]pyridine-6-carboxylic acid]: in experiment [3], the EC50 came out at 3.1 nM.
The same measure, in the same setting: the value for `O=C(O)[C@H]1[C@@H]2Cc3cc(OCc4cc(-c5ccc(OC[C@H]6C[C@@](O)(CO)C6)cc5Cl)c(F)cc4F)ncc3[C@@H]21` (single isomer, unassigned) [Compound-23] was 1 nM; that for `Cc1cc(OC2CC(C(C)(O)CO)C2)cc(C)c1-c1cc(COc2cc3c(cn2)C2C(C3)C2C(=O)O)c(F)cc1F` (single isomer, unassigned) [Compound-22] was 0.7 nM.
In turn, `Cc1cc(OC[C@H]2C[C@@](O)(CO)C2)cc(C)c1-c1cc(COc2cc3c(cn2)[C@H]2[C@@H](C3)[C@@H]2C(=O)O)c(F)cc1F` (single isomer, unassigned) [Compound-25] came in with an EC50 in experiment [3] of 1.9 nM.
The same measure, in the same setting: then `Cc1cc(-c2ncn(CC(C)(C)O)n2)cc(C)c1-c1cc(COc2cc3c(cn2)[C@H]2[C@@H](C3)[C@@H]2C(=O)O)c(F)cc1F` [Compound-17, (5aR,6S,6aS)-3-((4,6-difluoro-4′-(1-(2-hydroxy-2-methylpropyl)-1H-1,2,4-triazol-3-yl)-2′,6′-dimethyl-[1,1′-biphenyl]-3-yl)methoxy)-5,5a,6,6a-tetrahydrocyclopropa[4,5]cyclopenta[1,2-c]pyridine-6-carboxylic acid], with 0.8 nM.
